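The compound was tested at five concentrations on cells cultured in 96-well plates, with a 48-hour exposure period. TGI is the concentration that stops growth completely.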
What was measured:
Test in all cases: growth of human tumour cells (NCI), 48 h
[1] = test system: CCRF-CEM leukemia
[2] = test system: HS 578T breast
[3] = test system: 786-0 renal
[4] = test system: NCI-H522 lung
[5] = test system: HOP-62 NSCLC
[6] = test system: UACC-257 melanoma
[7] = test system: OVCAR-3 ovarian
[8] = test system: U251 CNS
[9] = test system: EKVX NSCLC
[10] = test system: HCT-116 colon
[11] = test system: SNB-75 CNS
[12] = test system: HL-60(TB) leukemia
[13] = test system: TK-10 renal
[14] = test system: MOLT-4 leukemia
[15] = test system: SF-268 CNS
[16] = test system: SW-620 colon
[17] = test system: SF-539 CNS
[18] = test system: NCI/ADR-RES ovarian
[19] = test system: NCI-H23 lung
[20] = test system: ACHN renal
[21] = test system: HT29 colon
[22] = test system: MDA-N
[23] = test system: OVCAR-5 ovarian
[24] = test system: SN12C renal
[25] = test system: CAKI-1 renal
[26] = test system: M14 melanoma
[27] = test system: RPMI-8226 leukemia
[28] = test system: MALME-3M melanoma
[29] = test system: IGROV1 ovarian
[30] = test system: DU-145 prostate
[31] = test system: OVCAR-8 ovarian
[32] = test system: COLO 205 colon
[33] = test system: NCI-H226 lung
[34] = test system: A549 NSCLC
[35] = test system: KM12 colon
[36] = test system: MDA-MB-231 breast
[37] = test system: HCT-15 colon
[38] = test system: RXF 393 renal
[39] = test system: UO-31 renal
[40] = test system: K-562 leukemia
[41] = test system: SK-MEL-5 melanoma
[42] = test system: SNB-19 CNS
[43] = test system: MDA-MB-435
[44] = test system: HCC-2998 colon
[45] = test system: SR leukemia
[46] = test system: NCI-H460 lung
[47] = test system: SK-MEL-28 melanoma
[48] = test system: SF-295 CNS
[49] = test system: LOX IMVI melanoma
[50] = test system: MCF7 breast
[51] = test system: SK-MEL-2 melanoma
[52] = test system: OVCAR-4 ovarian
[53] = test system: SK-OV-3 ovarian
[54] = test system: PC-3 prostate
[55] = test system: A498 renal
[56] = test system: BT-549 breast
[57] = test system: HOP-92 NSCLC
[58] = test system: UACC-62 melanoma

Measured: TGI

COc1ccc(NS(=O)CCc2ccccc2)cc1 (stereo not drawn)
not listed: [51] | [52] | [53] | [54] | [55] | [56] | [57] | [58]
> 100 µM: all other assays above

N#Cc1c(-c2ccccc2)c(C#N)c(=O)n(NS(=O)(=O)c2ccccc2)c1O
not listed: [7] | [19] | [30] | [39] | [45]
> 100 µM: all other assays above

Reference: PubChem BioAssay (NCI)
